Laboratory results: patent publication US8883173B2 (priority 2007, dated 2014)
“Also recorded” adds a separate entry of the source. Square brackets hold non-standard residues; d marks the D form. Ends that are not written are not given here. NMeV = CN[C@H](C(=O)O)C(C)C

Experiments:
[1] = system: sera from Map infected animals (anti-Map antibodies); assay type: binding, bovines and goats
[2] = system: IgA, IgM, IgG1 or IgG2 antibodies in sera of Map infected animals; assay type: binding, bovines
[3] = system: sera from Mav- or Mai-infected human patients; assay type: binding
[4] = system: sera from M. avium subsp. avium-experimentally infected mouse; test: ELISA with sera from Mav experimentally infected mouse; assay type: binding; conditions: FIG. 4B
[5] = system: sera from M. bovis infected bovine; assay type: binding; conditions: read at 414 nm

CCCCCCCCCCCCCCCCCCCC(=O)O [lipid moiety, eicosanoic acid, reference compound]
recognition by sera of Map-infected animals, compared with L5P [1]: poorly recognized

AcNH-DPhe-NMeVal-Ile-Phe-Ala (Ac-[dF][NMeV]IFA) [compound 10]
specific reaction with Map specific anti serum [1]: react specifically

AcNH-DPhe-NMeVal-Ile-Phe-Ala-OMe (Ac-[dF][NMeV]IFA-OMe; SMILES CC[C@H](C)[C@H](NC(=O)[C@H](C(C)C)N(C)C(=O)[C@@H](Cc1ccccc1)NC(C)=O)C(=O)N[C@@H](Cc1ccccc1)C(=O)N[C@@H](C)C(=O)OC) [Ac5P]
recognition by sera of Map-infected animals, compared with L5P [1]: recognized as efficiently as the L5P; also recorded: In some cases, the pentapeptide was even better recognized than the whole L5P

AcNH-DPhe-Val-Ile-Phe-Ala-OMe (Ac-[dF]VIFA-OMe; SMILES CC[C@H](C)[C@H](NC(=O)[C@@H](NC(=O)[C@@H](Cc1ccccc1)NC(C)=O)C(C)C)C(=O)N[C@@H](Cc1ccccc1)C(=O)N[C@@H](C)C(=O)OC) [compound 8]
specific reaction with Map specific anti serum [1]: react specifically

DPhe-NMeVal-Ile-Phe-Ala-OMe ([dF][NMeV]IFA-OMe) [compound 4]
antigenic response (ranking among analogues) [1]: best antigenic response | recognition by sera of Map-infected animals, compared with L5P [1]: recognized at least as efficiently | sensitivity for detection of Map-specific antibodies compared to L5P (1) [1]: higher sensitivity | specific reaction with Map specific anti serum [1]: react specifically

LipidC20-DPhe-NMeVal-Ile-Phe-Ala [compound 9]
specific reaction with Map specific anti serum [1]: react specifically

LipidC20-DPhe-NMeVal-Ile-Phe-Ala-OMe [L5P]
OD in ELISA [1]: above 1,5 | specificity compared with PPD [1]: by far more specific than the PPD | anti-L5P IgA in sera [2]: no IgA was detected | anti-L5P IgG1 in sera [2]: present | anti-L5P IgG2 in sera [2]: present | anti-L5P IgM in sera [2]: present | O.D. in ELISA [3]: below 0.2 | reactivity with sera [4]: none was reacting | O.D. in ELISA [5]: below 0.2
